Laboratory results as given in patent US12144795B2, “Cannabidiol compositions having modified cannabinoid profiles” (priority 2018, dated 2024).

Assay: Stability studies of CBD prepared via Protocol 3 (crude, pure, 2x recrystallized; 5° C., 25° C./60% RH, 40° C./75% RH)
Type: physicochemical

In the case of C=C(C)[C@@H]1CCC(C)=C[C@H]1c1c(O)cc(CCCCC)cc1O [Pure CBD (Recrystallized Twice)], the “Related substances by HPLC (low level): Δ9-Tetrahydrocannabinol” value (25° C./60% RH, 0 month) is reported as 11 ppm, the “Water content in % w/w” value (25° C./60% RH, 0 month) is reported as under 0.05% and the Appearance (25° C./60% RH, 1 month) is reported as “Off-White”. The “Assay by HPLC” value (25° C./60% RH, 1 month) was 100.2%, the Each unspecified impurity (25° C./60% RH, 1 month) was <0.03% (ND) and the “Related substances by HPLC (low level): Δ8-Tetrahydrocannabinol” value (25° C./60% RH, 1 month) was 9 ppm. For the same molecule, the “Related substances by HPLC (low level): Δ9-Tetrahydrocannabinol” value (25° C./60% RH, 1 month) was 6 ppm, the “Related substances by HPLC: 4-Monobromo-CBD” value (25° C./60% RH, 1 month) was <0.03% (ND) and the “Related substances by HPLC: Olivetol” value (25° C./60% RH, 1 month) was <0.03% (ND). The “Related substances by HPLC: Sum of impurities, ≥0.05%” value (from here on “Related substances by HPLC … ≥0.05%”) (25° C./60% RH, 1 month) was <0.05% (ND), the “Related substances by HPLC: Δ8-Tetrahydrocannabinol” value (25° C./60% RH, 1 month) was <0.02% (ND) and the “Related substances by HPLC: Δ9-Tetrahydrocannabinol” value (25° C./60% RH, 1 month) was <0.02% (ND). For the same molecule, the Appearance (25° C./60% RH, 2 months) was “Oft-White”, the “Assay by HPLC” value (25° C./60% RH, 2 months) was 99.9% and the Each unspecified impurity (25° C./60% RH, 2 months) was <0.03% (ND). The “Related substances by HPLC (low level): Δ8-Tetrahydrocannabinol” value (25° C./60% RH, 2 months) was 7 ppm, the “Related substances by HPLC (low level): Δ9-Tetrahydrocannabinol” value (25° C./60% RH, 2 months) was 4 ppm and the “Related substances by HPLC: 4-Monobromo-CBD” value (25° C./60% RH, 2 months) was <0.03% (ND). For the same molecule, the “Related substances by HPLC: Olivetol” value (25° C./60% RH, 2 months) was <0.03% (ND), the “Related substances by HPLC … ≥0.05%” value (25° C./60% RH, 2 months) was <0.05% (ND) and the “Related substances by HPLC: Δ8-Tetrahydrocannabinol” value (25° C./60% RH, 2 months) was <0.02% (ND). For the same molecule, the “Related substances by HPLC: Δ9-Tetrahydrocannabinol” value (25° C./60% RH, 2 months) was <0.02% (ND), the Appearance (25° C./60% RH, 3 months) was “White” and the “Assay by HPLC” value (25° C./60% RH, 3 months) was 98.4%. For the same molecule, the “Each unspecified impurity: RRT~1.980” value (25° C./60% RH, 3 months) was “RRT~1.980: 0.03%”, the “Related substances by HPLC (low level): Δ8-Tetrahydrocannabinol” value (25° C./60% RH, 3 months) was 13 ppm and the “Related substances by HPLC (low level): Δ9-Tetrahydrocannabinol” value (25° C./60% RH, 3 months) was under 4 ppm. For the same molecule, the “Related substances by HPLC: 4-Monobromo-CBD” value (25° C./60% RH, 3 months) was <0.03% (ND), the “Related substances by HPLC: Olivetol” value (25° C./60% RH, 3 months) was <0.03% (ND) and the “Related substances by HPLC … ≥0.05%” value (25° C./60% RH, 3 months) was under 0.05%. The “Related substances by HPLC: Δ8-Tetrahydrocannabinol” value (25° C./60% RH, 3 months) was <0.02% (ND), the “Related substances by HPLC: Δ9-Tetrahydrocannabinol” value (25° C./60% RH, 3 months) was <0.02% (ND) and the “Related substances by HPLC (low level): Δ9-Tetrahydrocannabinol” value (40° C./75% RH, 0 month) was 11 ppm. The “Water content in % w/w” value (40° C./75% RH, 0 month) was under 0.05%, the Appearance (40° C./75% RH, 1 month) was “Off-White” and the “Assay by HPLC” value (40° C./75% RH, 1 month) was 99.5%. The Each unspecified impurity (40° C./75% RH, 1 month) was <0.03% (ND), the “Related substances by HPLC (low level): Δ8-Tetrahydrocannabinol” value (40° C./75% RH, 1 month) was 6 ppm and the “Related substances by HPLC (low level): Δ9-Tetrahydrocannabinol” value (40° C./75% RH, 1 month) was 4 ppm. For the same molecule, the “Related substances by HPLC: 4-Monobromo-CBD” value (40° C./75% RH, 1 month) was <0.03% (ND), the “Related substances by HPLC: Olivetol” value (40° C./75% RH, 1 month) was <0.03% (ND) and the “Related substances by HPLC … ≥0.05%” value (40° C./75% RH, 1 month) was <0.05% (ND). The “Related substances by HPLC: Δ8-Tetrahydrocannabinol” value (40° C./75% RH, 1 month) was <0.02% (ND), the “Related substances by HPLC: Δ9-Tetrahydrocannabinol” value (40° C./75% RH, 1 month) was <0.02% (ND) and the Appearance (40° C./75% RH, 2 months) was “Off-White”. The “Assay by HPLC” value (40° C./75% RH, 2 months) was 101.7%, the Each unspecified impurity (40° C./75% RH, 2 months) was <0.03% (ND) and the “Related substances by HPLC (low level): Δ8-Tetrahydrocannabinol” value (40° C./75% RH, 2 months) was 6 ppm. For the same molecule, the “Related substances by HPLC (low level): Δ9-Tetrahydrocannabinol” value (40° C./75% RH, 2 months) was <4 ppm (3 ppm), the “Related substances by HPLC: 4-Monobromo-CBD” value (40° C./75% RH, 2 months) was <0.03% (ND) and the “Related substances by HPLC: Olivetol” value (40° C./75% RH, 2 months) was <0.03% (ND). The “Related substances by HPLC … ≥0.05%” value (40° C./75% RH, 2 months) was <0.05% (ND), the “Related substances by HPLC: Δ8-Tetrahydrocannabinol” value (40° C./75% RH, 2 months) was <0.02% (ND) and the “Related substances by HPLC: Δ9-Tetrahydrocannabinol” value (40° C./75% RH, 2 months) was <0.02% (ND). For the same molecule, the Appearance (40° C./75% RH, 3 months) was “Off-white”, the “Assay by HPLC” value (40° C./75% RH, 3 months) was 99.4% and the “Each unspecified impurity: RRT~1.981” value (40° C./75% RH, 3 months) was 0.03%. For the same molecule, the “Related substances by HPLC (low level): Δ8-Tetrahydrocannabinol” value (40° C./75% RH, 3 months) was 14 ppm, the “Related substances by HPLC (low level): Δ9-Tetrahydrocannabinol” value (40° C./75% RH, 3 months) was under 4 ppm and the “Related substances by HPLC: 4-Monobromo-CBD” value (40° C./75% RH, 3 months) was <0.03% (ND). The “Related substances by HPLC: Olivetol” value (40° C./75% RH, 3 months) was <0.03% (ND), the “Related substances by HPLC … ≥0.05%” value (40° C./75% RH, 3 months) was under 0.05% and the “Related substances by HPLC: Δ8-Tetrahydrocannabinol” value (40° C./75% RH, 3 months) was <0.02% (ND). For the same molecule, the “Related substances by HPLC: Δ9-Tetrahydrocannabinol” value (40° C./75% RH, 3 months) was <0.02% (ND), the Appearance (40° C./75% RH, 5 months) was “Off-white” and the “Assay by HPLC” value (40° C./75% RH, 5 months) was 98.9%. The “Each unspecified impurity: RRT~0.956” value (40° C./75% RH, 5 months) was 0.04%, the “Related substances by HPLC (low level): Δ8-Tetrahydrocannabinol” value (40° C./75% RH, 5 months) was 21 ppm and the “Related substances by HPLC (low level): Δ9-Tetrahydrocannabinol” value (40° C./75% RH, 5 months) was under 4 ppm. The “Related substances by HPLC: 4-Monobromo-CBD” value (40° C./75% RH, 5 months) was <0.03% (ND), the “Related substances by HPLC: Olivetol” value (40° C./75% RH, 5 months) was <0.03% (ND) and the “Related substances by HPLC … ≥0.05%” value (40° C./75% RH, 5 months) was under 0.05%. For the same molecule, the “Related substances by HPLC: Δ8-Tetrahydrocannabinol” value (40° C./75% RH, 5 months) was <0.02% (ND) and the “Related substances by HPLC: Δ9-Tetrahydrocannabinol” value (40° C./75% RH, 5 months) was <0.02% (ND).
